Literature values, collected in patent US20230143731A1, “NANOMATERIALS FOR TARGETED TREATMENT OF PULMONARY TISSUE” (The University of North Carolina at Chapel Hill, priority 2020, published 2023).

Test system: ACE
Conditions: with and without the C-terminal serine

Row | Substance | ACE inhibition [%]
1 | TPTQQ [TPTQQ peptide] | 26
2 | TPTQQS | 73
